Laboratory results as given in patent US11884681B2, “3H,4H,5H,6H,7H-pyrimido[4,5-b][1,4]oxazine-4,6-dione derivatives as TRPA1 inhibitors” (Boehringer Ingelheim International GmbH, priority 2021, dated 2024).

Tests used:
human TRPA1 ion channel = target: T1, human TRPA1 ion channel (Homo sapiens, UniProt O75762); assay: Assay A: TRPA1 assay (FLIPR calcium, AITC agonism); assay type: cell-based; settings: compounds of the invention; HEK293 over-expressing human TRPA1, AITC final 10 μM, FLIPRtetra; read-out: hTRPA1 IC50
T1 construct: host or cells: HEK293
T1 sequence (O75762 whole entry): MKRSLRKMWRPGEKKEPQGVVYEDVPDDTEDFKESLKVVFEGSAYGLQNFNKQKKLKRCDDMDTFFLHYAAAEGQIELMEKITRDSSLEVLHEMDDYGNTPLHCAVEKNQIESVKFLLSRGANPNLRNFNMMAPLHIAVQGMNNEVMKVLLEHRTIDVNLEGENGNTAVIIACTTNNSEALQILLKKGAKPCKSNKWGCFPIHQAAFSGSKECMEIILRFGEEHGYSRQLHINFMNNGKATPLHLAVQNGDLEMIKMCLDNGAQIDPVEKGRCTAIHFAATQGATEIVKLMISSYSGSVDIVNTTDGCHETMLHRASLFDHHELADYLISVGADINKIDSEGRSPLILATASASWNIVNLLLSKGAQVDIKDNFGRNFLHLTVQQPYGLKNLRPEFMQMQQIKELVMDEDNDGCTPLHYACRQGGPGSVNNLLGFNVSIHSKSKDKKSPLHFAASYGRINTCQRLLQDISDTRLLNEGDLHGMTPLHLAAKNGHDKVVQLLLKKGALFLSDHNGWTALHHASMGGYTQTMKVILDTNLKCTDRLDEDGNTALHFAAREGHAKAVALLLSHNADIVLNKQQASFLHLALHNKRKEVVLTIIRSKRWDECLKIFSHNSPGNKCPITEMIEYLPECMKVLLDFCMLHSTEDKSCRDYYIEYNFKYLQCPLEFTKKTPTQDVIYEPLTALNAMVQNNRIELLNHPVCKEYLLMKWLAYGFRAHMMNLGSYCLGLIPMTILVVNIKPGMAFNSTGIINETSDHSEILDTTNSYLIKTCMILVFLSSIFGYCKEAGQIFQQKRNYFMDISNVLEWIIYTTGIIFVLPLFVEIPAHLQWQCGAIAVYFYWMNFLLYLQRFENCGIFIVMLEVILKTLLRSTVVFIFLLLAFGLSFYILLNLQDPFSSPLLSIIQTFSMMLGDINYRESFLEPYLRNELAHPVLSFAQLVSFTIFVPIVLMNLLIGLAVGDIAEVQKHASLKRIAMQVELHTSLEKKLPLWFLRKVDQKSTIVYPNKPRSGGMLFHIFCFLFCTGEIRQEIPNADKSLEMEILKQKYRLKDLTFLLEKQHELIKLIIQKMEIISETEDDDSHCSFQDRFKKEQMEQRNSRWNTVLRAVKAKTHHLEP
Description: A human HEK293 cell line over-expressing the human TRPA1 ion channel (Perkin Elmer, Product No. AX-004-PCL) is used as a test system for compound efficacy and potency. Compound activity is determined by measuring the effect of compounds on intracellular calcium concentration induced by AITC (Allylisothiocyanat) agonism in a FLIPRtetra system (Molecular Devices).
The cells are obtained as frozen cells in cryo-vials and stored until use at −150° C. Cells are grown in culture medium (MEM/EBSS medium with 10% FCS and 0.4 mg/ML Geneticin). […] For sub-culturing cells are detached from flasks by Versene. At the day before the assay, cells are detached, washed twice with medium (MEM/EBSS medium with 10% FCS) and 20000 cells in 20 μl/well are seeded to Poly D-Lysin biocoated 384-well plates (black, clear bottom, Cat. 356697) from Corning. Plates are incubated for 24 hours at 37° C./5% CO2 before use in the assay.
The test compounds are dissolved in 100% DMSO at a concentration of 10 mM and in a first step diluted in DMSO to a concentration of 5 mM, followed by serial dilution steps in 100% DMSO. Dilution factor and number of dilution steps may vary according to needs. Typically 8 different concentrations by 1:5 dilutions are prepared, further intermediate dilutions (1:20) of the substances are carried out with HBSS/HEPES buffer (1×HEPES, Cat. 14065 from Gibco, 20 mM HEPES, Cat. 83264 from SIGMA, 0.1% BSA Cat. 11926 from Invitrogen, pH 7.4
At the assay day cells are washed 3× with assay puffer, 20 μL buffer remaining in the wells after washing. 10 μL Ca6 kit (Cat. R8191 MolecularDevices) loading buffer in HBSS/HEPES is added to the cells and the plates are incubated with lid for 120 minutes at 37°/5% CO2. […] Finally 10 μL of the agonist AITC 50 μM dissolved in HBSS/HEPES buffer/0.05% DMSO (final concentration 10 μM) is added to the wells followed by an additional read on the FLIPRtetra device for 10 minutes. The area under the signal curve (AUC) after AITC addition is used for IC50/% inhibition calculations
Data Evaluation and Calculation:
Each assay microtiter plate contains wells with vehicle (1% DMSO) controls instead of compound as controls for AITC induced luminescence (100% CTL; high controls) and wells with vehicle controls without AITC as controls for non-specific changes in luminescence (0% CTL; low controls).
The analysis of the data is performed by the calculation of the area under signal curve of the individual wells. Based on this values the % value for the measurement of each substance concentration is calculated (AUC(sample)−AUC(low))*100/(AUC(high)−AUC(low)) using MegaLab software (in house development). The IC50 values are calculated from the % control values using MegaLab software. Calculation: [y=(a−d)/(1+(x/c)^b)+d], a=low value, d=high value; x=conc M; c=IC50 M; b=hill; y=% ctrl

[1] = Assay B: Microsomal clearance; assay type: in vitro ADME, human; settings: compounds of the invention; pooled liver microsomes 1 mg/ml, 1 μM compound, 37° C., NADPH
Description: Assay B: Microsomal Clearance:
The metabolic degradation of the test compound is assayed at 37° C. with pooled liver microsomes. The final incubation volume of 100 μl per time point contains TRIS buffer pH 7.6 at RT (0.1 M), magnesium chloride (5 mM), microsomal protein (1 mg/ml) and the test compound at a final concentration of 1 μM.
Following a short preincubation period at 37° C., the reactions are initiated by addition of beta-nicotinamide adenine dinucleotide phosphate, reduced form (NADPH, 1 mM) and terminated by transferring an aliquot into solvent after different time points (0, 5, 15, 30, 60 min). Additionally, the NADPH-independent degradation is monitored in incubations without NADPH, terminated at the last time point. The [%] remaining test compound after NADPH independent incubation is reflected by the parameter c(control) (metabolic stability). The quenched incubations are pelleted by centrifugation (10000 g, 5 min).
An aliquot of the supernatant is assayed by LC-MS/MS for the amount of parent compound. The half-life (t1/2 INVITRO) is determined by the slope of the semilogarithmic plot of the concentration-time profile.
The intrinsic clearance (CL_[…]) is calculated by considering the amount of protein in the incubation: CL_[…] [μl/min/mg protein]=(Ln 2/(half-life [min]*protein content [mg/ml]))*1000 CL_[…]_INVIVO [ml/min/kg]=(CL_[…] [μL/min/mg protein]×MPPGL [mg protein/g liver]×liver factor [g/kg bodyweight])/1000 Qh [%]=CL [ml/min/kg]/hepatic blood flow [ml/min/kg])
(§1) Hepatocellularity, human: 120×10e6 cells/g liver
(§2) Liver factor, human 25.7 g/kg bodyweight
(§3) Blood flow, human 21 ml/(min×kg)

[2] = Assay C: Hepatocyte clearance; assay type: in vitro ADME, human; settings: compounds of the invention; hepatocyte suspension, 5% species serum, 1 μM compound, up to 6 h
Description: Assay C: Hepatocyte Clearance
The metabolic degradation of the test compound is assayed in a hepatocyte suspension. Hepatocytes (cryopreserved) are incubated in Dulbecco's modified eagle medium (supplemented with 3.5 μg glucagon/500 mL, 2.5 mg insulin/500 mL and 3.75 mg/500 mL hydrocortison) containing 5% species serum.
The cells are incubated for six hours (incubator, orbital shaker) and samples (25 μl) are taken at 0, 0.5, 1, 2, 4 and 6 hours. Samples are transferred into acetonitrile and pelleted by centrifugation (5 min). The supernatant is transferred to a new 96-deepwell plate, evaporated under nitrogen and resuspended.
Decline of parent compound is analyzed by HPLC-MS/MS
CLint is calculated as follows CL_[…]=Dose/AUC=(CO/CD)/(AUD+clast/k)×1000/60. C0: initial concentration in the incubation [μM], CD: cell density of vital cells [10e6cells/mL], AUD: area under the data [μM×h], clast: concentration of last data point [μM], k: slope of the regression line for parent decline [h−1].
The calculated in vitro hepatic intrinsic clearance can be scaled up to the intrinsic in vivo hepatic Clearance and used to predict hepatic in vivo blood clearance (CL) by the use of a liver model (well stirred model). CL_[…]_INVIVO [ml/min/kg]=(CL_[…] [μL/min/10e6cells]×hepatocellularity [10e6 cells/g liver]×liver factor [g/kg bodyweight])/1000 CL [ml/min/kg]=CL_[…]_INVIVO [ml/min/kg]×hepatic blood flow [ml/min/kg]/(CL_[…]_INVIVO [ml/min/kg]+hepatic blood flow [ml/min/kg]) Qh [%]=CL [ml/min/kg]/hepatic blood flow [ml/min/kg])
as §1, §2, §3

Row | IC50 (human TRPA1 ion channel) [µM] | human LM [1] [% Qh] | human Hepatocytes [2] [% Qh] | Structure (SMILES)
1 | 0.051 | 56 | 37 | CN1C(=O)COc2ncn(Cc3nc(C[C@H](O)c4cc5cc(Cl)ccc5o4)no3)c(=O)c21 [Example 6]
2 | 0.12 | <23 | 9 | Cc1ccc([C@@H](O)Cc2noc(Cn3cnc4c(c3=O)N(C)C(=O)CO4)n2)cc1 [Example 7]

The remaining lines, values behind:

Row | Structure (SMILES) | IC50 (human TRPA1 ion channel) [µM] | human LM [1] [% Qh] | human Hepatocytes [2] [% Qh]
3 | CN1C(=O)COc2ncn(Cc3nc(C[C@H](O)c4ccc(Cl)cc4)no3)c(=O)c21 [Example 1, 3-({3-[(2S)-2-(4-chlorophenyl)-2-hydroxyethyl]-1,2,4-oxadiazol-5-yl}methyl)-5-methyl-3H,4H,5H,6H,7H-pyrimido[4,5-b][1,4]oxazine-4,6-dione] | 0.057 | <23 | 9
4 | CN1C(=O)COc2ncn(Cc3nc(C[C@H](O)c4cc5ccc(F)cc5s4)no3)c(=O)c21 [Example 2] | 0.012 | <23 | 34
5 | CN1C(=O)COc2ncn(Cc3nc(C[C@H](O)c4cc5ccccc5s4)no3)c(=O)c21 [Example 3] | 0.027 | <23 | 31
6 | CN1C(=O)COc2ncn(Cc3nc(C[C@H](O)c4cc5cc(F)ccc5o4)no3)c(=O)c21 [Example 4] | 0.039 | <23 | 22
7 | CN1C(=O)COc2ncn(Cc3nc(C[C@H](O)c4ccc(I)cc4)no3)c(=O)c21 [Example 5] | 0.039 | 29 | 22
